# According to patent US20110250184A1, “METHODS FOR DETERMINING EFFICACY OF A THERAPEUTIC REGIMEN AGAINST DELETERIOUS EFFECTS OF CYTOTOXIC AGENTS IN HUMAN” (priority 2008, published 2011):
# “Also recorded” adds a separate entry of the source.
# How the values were obtained:
# human bone marrow cells = assay: Cytotoxicity to human bone marrow cells (methocult, total colony forming units); type: cell-based; details: 2 and 24 hours treatment, up to 20 μM; sodium salt
# Procedure: FIG. 2. ON 01210.Na is not cytotoxic to human bone marrow cells in vitro. Human bone marrow cells were treated with various concentrations of ON 01210.Na for (A) 2 hrs or (B) 24 hrs. The cells were then plated into methocult medium. Total colony forming units were determined 14 days later.
# The ability of ON 01210.Na to protect primary human bone marrow cells from cytotoxic doses of radiation was studied in an in vitro assay. Initially, cytotoxicity studies were performed. Human bone marrow cells isolated from healthy volunteers were treated with increasing concentrations of ON 01210.Na for 2 and 24 hours and plated into methocult.
# FIG. 2. ON 01210.Na was not cytotoxic to human bone marrow cells in vitro. Human bone marrow cells were treated with various concentrations of ON 01210.Na for (A) 2 hrs or (B) 24 hrs. The cells were then plated into methocult medium. Total colony forming units were determined 14 days later.
# [1] = system: human umbilical vein endothelial cells; assay: In vitro clonogenic survival assay, endothelial cells; type: cell-based
# [2] = system: 67 radioligand receptor binding assays; assay: Panel of 67 radioligand receptor binding assays; details: in vitro primary screening
# Procedure: Additional biochemical studies were performed to screen for potential secondary or non-specific activities. ON 01210.Na was subjected to in vitro primary screening across a broad panel of 67 radioligand receptor binding assays and five cytochrome P450 enzymes: 1A2, 2C9, 2C19, 3A4, and 2D6. […] Only one cytochrome assay, CYP450 2C9, in which the activity was […] 98%, yielded a response that was considered significant. Thus, as a preliminary screen for safety and selectivity profiling, no targets were identified.
structure (smiles),measurement,setting,value
"O=C([O-])c1ccc(/C=C/S(=O)(=O)Cc2ccc(Cl)cc2)cc1.[Na+] [ON 01210.Na, E-4-Carboxystyryl-4-chlorobenzylsulfone sodium salt]",cytotoxicity to human bone marrow cells (total colony forming units),human bone marrow cells,non cytotoxic; also recorded: not cytotoxic; also recorded: nontoxic
same,protection from radiation exposure (clonogenic survival),[1],protected
same,inhibition or stimulation of receptor binding,[2],No significant inhibition or stimulation
